The text below walks through data of ChEMBL document CHEMBL1123439, “Folate analogues. 26. Syntheses and antifolate activity of 10-substituted derivatives of 5,8-dideazafolic acid and of the poly-gamma-glutamyl metabolites of N10-propargyl-5,8-dideazafolic acid (PDDF)” (J Med Chem, 1986).

The test system of experiment [1] is Enterococcus faecium. In words: Inhibitory activity against Streptococcus faecium MTX-resistant. The experiment is classed as functional, organism-based.
Experiment [2] has as its system Lacticaseibacillus casei. In words: Inhibitory activity against Lactobacillus casei MTX-resistant. Format: functional, organism-based.
In experiment [3] the test system is Lacticaseibacillus casei. In words: Inhibitory activity against Lactobacillus casei ATCC 7469. The experiment is classed as functional, organism-based.
Experiment [4] concerns L1210. In words: Inhibition of thymidylate synthesis in L1210 intact cells at 10 uM. Format: functional. Conditions: Mus musculus.
For the next experiment, the target named is T1, Thymidylate synthase (Lactobacillus casei, UniProt P00469).
T1 sequence (P00469 whole entry): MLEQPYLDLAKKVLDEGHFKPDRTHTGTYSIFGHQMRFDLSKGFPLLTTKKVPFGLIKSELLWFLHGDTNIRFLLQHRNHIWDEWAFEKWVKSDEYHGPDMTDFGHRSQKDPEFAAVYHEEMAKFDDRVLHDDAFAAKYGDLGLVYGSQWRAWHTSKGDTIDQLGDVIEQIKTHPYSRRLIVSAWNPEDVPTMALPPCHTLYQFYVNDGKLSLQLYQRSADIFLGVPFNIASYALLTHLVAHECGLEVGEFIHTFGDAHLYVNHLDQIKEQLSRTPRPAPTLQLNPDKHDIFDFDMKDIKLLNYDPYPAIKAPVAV
Briefly: Inhibitory activity against thymidylate synthase of Lactobacillus casei. The arrangement: species or system Lacticaseibacillus casei.

Experiment [5] has as its system L1210. In words: Inhibition of thymidylate synthesis in permeabilised cells. Conditions: Mus musculus. The experiment is classed as functional, cell-based.
For a further experiment, the target named is Dihydrofolate reductase (Lactobacillus casei, UniProt P00381). Briefly: Inhibitory activity against dihydrofolate reductase of Lactobacillus casei. The arrangement: species or system Lacticaseibacillus casei.
Dihydrofolate reductase, sequence (P00381 whole entry): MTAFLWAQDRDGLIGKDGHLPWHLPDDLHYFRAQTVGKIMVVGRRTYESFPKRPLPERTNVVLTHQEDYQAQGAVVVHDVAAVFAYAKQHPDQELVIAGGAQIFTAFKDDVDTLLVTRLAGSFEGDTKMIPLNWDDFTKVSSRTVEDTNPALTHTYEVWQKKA
Experiment [6] deals with Enterococcus faecium. Briefly: Inhibitory activity against Streptococcus faecium ATCC 8043. Format: functional, organism-based.
The subject of experiment [7] is L1210. Briefly: Inhibition of thymidylate synthesis in L1210 cells at 100 uM. The experiment is classed as functional. Conditions: Mus musculus.

SMILES strings stand for the structures.

A word on the IC50: it is the concentration at which inhibition is half-maximal. A lower IC50 goes with greater potency in that assay. For orientation: inhibition means how much of the control response was suppressed. A lower inhibition goes with little suppression.

As for `C#CN(Cc1ccc2nc(N)nc(O)c2c1)c1ccc(C(=O)NC(CCC(=O)O)C(=O)NC(CCC(=O)NC(CCC(=O)NC(CCC(=O)NC(CCC(=O)O)C(=O)O)C(=O)O)C(=O)O)C(=O)O)cc1` (stereo unspecified), the IC50 was greater than 0.8 µM in the experiment on Enterococcus faecium [1]; greater than 20 µM in the experiment with Lacticaseibacillus casei [2]; 0.35 nM with Lacticaseibacillus casei [3]; 0.013 µM on Thymidylate synthase; 0.002 µM in the experiment with L1210 [5]; 2.9 µM against Dihydrofolate reductase. This compound registered an IC50 with Enterococcus faecium [6] greater than 0.08 µM. In the experiment with L1210 [4], 10 µM produced 0% inhibition. In addition, the inhibition at 100 µM in the experiment on L1210 [7] was determined as 8%.
As to `C#CN(Cc1ccc2nc(N)nc(O)c2c1)c1ccc(C(=O)NC(CCC(=O)NC(CCC(=O)NC(CCC(=O)O)C(=O)O)C(=O)O)C(=O)O)cc1` (stereo unspecified), the IC50 in the experiment with Enterococcus faecium [1] was greater than 0.8 µM; in the experiment with Lacticaseibacillus casei [2], 1.1 µM; with Lacticaseibacillus casei [3], 0.08 nM; against Thymidylate synthase, 0.014 µM; in the experiment on L1210 [5], 0.002 µM; against Dihydrofolate reductase, 5.3 µM. In addition, 0.034 µM corresponded to half-maximal inhibition in the experiment on Enterococcus faecium [6] (IC50). This compound also gave an inhibition at 10 µM in the experiment on L1210 [4] of 0%. The compound further registered an inhibition at 100 µM in the experiment with L1210 [7] of 8%.
Regarding `C#CN(Cc1ccc2nc(N)nc(O)c2c1)c1ccc(C(=O)NC(CCC(=O)O)C(=O)NC(CCC(=O)O)C(=O)O)cc1` (stereo unspecified), the IC50 with Enterococcus faecium [1] stood at 0.125 µM; with Lacticaseibacillus casei [2], 0.28 µM; with Lacticaseibacillus casei [3], 0.05 nM; in the experiment with L1210 [5], 0.006 µM; with Enterococcus faecium [6], 0.00036 µM. For the same compound, the inhibition at 10 µM in the experiment on L1210 [4] stood at 0%. Also, in the experiment with L1210 [7], the inhibition at 100 µM was 32%.
For `C#CN(Cc1ccc2nc(N)nc(O)c2c1)c1ccc(C(=O)NC(CCC(=O)O)C(=O)NC(CCC(=O)NC(CCC(=O)NC(CCC(=O)O)C(=O)O)C(=O)O)C(=O)O)cc1` (stereo unspecified), the IC50 in the experiment with Enterococcus faecium [1] is greater than 0.8 µM; in the experiment on Lacticaseibacillus casei [2] it was greater than 20 µM; in the experiment on Lacticaseibacillus casei [3], 0.18 nM; against Thymidylate synthase, 0.014 µM; in the experiment on L1210 [5], 0.0014 µM; at Dihydrofolate reductase it was 3.7 µM. For the same compound, the IC50 with Enterococcus faecium [6] was 0.075 µM. Moreover, the inhibition at 10 µM in the experiment with L1210 [4] is 0%. Besides, the inhibition at 100 µM in the experiment with L1210 [7] stood at 3%.
As for `C#CN(Cc1ccc2nc(N)nc(O)c2c1)c1ccc(C(=O)NC(CCC=O)C(=O)O)cc1` (stereo unspecified), the IC50 in the experiment on Enterococcus faecium [1] amounted to 0.02 µM; in the experiment with Lacticaseibacillus casei [3], 0.4 nM; with L1210 [5], 0.03 µM; with Enterococcus faecium [6] it was 0.00013 µM. In addition, in the experiment with L1210 [4], the inhibition at 10 µM stood at 55%. The inhibition at 100 µM in the experiment on L1210 [7] turned out to be 87%.
As to `CC#CCN(Cc1ccc2nc(N)nc(O)c2c1)c1ccc(C(=O)N[C@@H](CCC(=O)O)C(=O)O)cc1`, the IC50 with Enterococcus faecium [1] was 1.6 µM; with Lacticaseibacillus casei [2], greater than 20 µM; in the experiment on Lacticaseibacillus casei [3], 86 nM; against Thymidylate synthase, 4.4 µM; in the experiment on L1210 [5] it was 14 µM; at Dihydrofolate reductase it was 250 µM. The same compound came in with an IC50 in the experiment with Enterococcus faecium [6] of 0.0067 µM.
As to `Nc1nc(O)c2cc(CN(CC3CC3)c3ccc(C(=O)N[C@@H](CCC(=O)O)C(=O)O)cc3)ccc2n1`, the IC50 is 1.5 µM in the experiment on Enterococcus faecium [1]; greater than 20 µM in the experiment on Lacticaseibacillus casei [2]; 8.1 nM in the experiment with Lacticaseibacillus casei [3]; 12 µM on Thymidylate synthase; 82 µM with L1210 [5]; 2.3 µM at Dihydrofolate reductase. In addition, the midpoint of inhibition in the experiment on Enterococcus faecium [6], the IC50, lay at 0.0026 µM.
For the compound `CN(Cc1cnc2nc(N)nc(N)c2n1)c1ccc(C(=O)N[C@@H](CCC(=O)O)C(=O)O)cc1` [METHOTREXATE], the IC50 with Enterococcus faecium [1] is 3.9 µM; in the experiment on Lacticaseibacillus casei [2] it was greater than 1000 µM; in the experiment with Lacticaseibacillus casei [3] it was 0.03 nM; in the experiment on L1210 [5], 60 µM; in the experiment with Enterococcus faecium [6] it was 0.0003 µM. For the same compound, the inhibition at 10 µM in the experiment with L1210 [4] worked out at 95%. The compound also had an inhibition at 100 µM with L1210 [7] of 98%.
